{
  "source": "patent US20030170296A1",
  "about": "“Transdermal drug delivery system” (priority 2000, published 2003)",
  "key": {"[1]": {"conditions": "cited from earlier work"}, "[2]": {"assay": "Pharmacokinetic study of transdermal APAP in rats", "type": "in vivo, rats (Sprague-Dawley)", "conditions": "100 mg APAP enhancer-containing transdermal system vs regular 100 mg patch, n=6 per group (FIG. 3)", "description": "Methodology: Anesthetized (15 mg/kg pentobarbital sodium i.p.) rats (Sprague-Dawley, 500-600 g), were placed on their back, the abdominal hair was trimmed off, and the skin was washed gently with distilled water. Anesthesia was maintained with 0.1 ml pentobarbital (15 mg/ml) along the experiment. […] Blood samples were taken from the tail vein into heparanized tubes at t=0, 1, 2, 3, 4, 5, 7 and 9 hours from the time of application.\nAfter centrifugation, plasma were analyzed for APAP by EMIT kit (Serum Tox EIA Assay, Diagnostic Reagents, Inc.)."}, "[3]": {"conditions": "single application of hydrogel disc system to skin; neonates with apnea; cited from earlier work"}, "[4]": {"conditions": "male, CD1 hairless, mouse, 24 h, pH 7.4"}},
  "data": [
    {"smiles": "CC(=O)Nc1ccc(O)cc1", "note": "[APAP, Acetaminophen]", "values": [
      {"measurement": "Volume of distribution", "setting": "[1]; in vivo", "result": 0.95, "unit": "L/kg"},
      {"measurement": "binding to plasma proteins", "setting": "[1]; in vivo", "result": 20, "unit": "%"},
      {"measurement": "effective plasma concentrations", "setting": "[1]; in vivo", "result": "10 to 20", "unit": "µg/mL"},
      {"measurement": "plasma elimination half life", "setting": "[1]; similar in children and adults", "result": "about 2 hours"},
      {"measurement": "drug recovered in the urine", "setting": "[1]; therapeutic doses", "result": "90-100%"},
      {"measurement": "recovered in urine conjugated with cysteine", "setting": "[1]; therapeutic doses", "result": "about 2%"},
      {"measurement": "recovered in urine conjugated with glucuronic acid", "setting": "[1]; therapeutic doses", "result": "about 60%"},
      {"measurement": "recovered in urine conjugated with sulfuric acid", "setting": "[1]; therapeutic doses", "result": "about 35%"},
      {"measurement": "unchanged APAP in urine", "setting": "[1]; therapeutic doses", "result": "about 2%"},
      {"measurement": "systemic penetration (plasma APAP)", "setting": "[2]", "result": "significant increase in penetration"}
    ]},
    {"smiles": "Cn1c(=O)c2[nH]cnc2n(C)c1=O", "note": "[theophylline]", "values": [
      {"measurement": "duration of therapeutic concentrations", "setting": "[3]", "result": "up to 3 days"}
    ]},
    {"smiles": "O=C(O)Cc1ccccc1Nc1c(Cl)cccc1Cl", "note": "[diclofenac]", "values": [
      {"measurement": "higher dose of diclofenac delivered vs regular application of Voltaren Emulgel", "setting": "[4]", "result": 12, "unit": "fold"}
    ]}
  ]
}
